Measurements taken from patent US10087188B2, “Benzamide imidazopyrazine Btk inhibitors” (MERCK SHARP & DOHME CORP., priority 2014, dated 2018).
Where two headings read alike, the source gives them in different places.

Experiments:
[1] = target: BTK enzyme (recombinant full-length BTK, hBTK) (Homo sapiens (Human), UniProt Q06187); assay: Btk enzyme activity assay, LANCE TR-FRET; assay type: biochemical; conditions: 50 pM hBTK, 2 μM biotin-A5-peptide, 25 μM ATP; 60 minute compound & enzyme incubation; read-out: BTK binding IC50
Experimental: Btk Enzyme Activity Assay Methods
BTK enzymatic activity was determined with the LANCE (Lanthanide Chelate Excite) TR-FRET (Time-resolved fluorescence resonance energy transfer) assay. […] After 60 minutes incubation with detection reagents, reaction plates were read on a PerkinElmer EnVision plate reader using standard TR-FRET protocol.

HeLa cells = assay: [3H] Adenosine uptake assay; assay type: cell-based; conditions: accumulation of tritiated adenosine into HeLa cells, compound concentration range 10 μM to 0.032 nM, read-out: ADU inhibition IC50 (adenosine uptake inhibition potency)
Experimental: Compounds are also screen in an adenosine uptake functional cellular assay using the protocol described below:
[^3H] Adenosine Uptake Assay Methods
Adenosine uptake activity was determined by monitoring the accumulation of tritiated adenosine into HeLa cells (ATCC catalog #CCL-2) using a PMT-based radiometric detection instrument. […] These cells were incubated overnight at 37° C. in a humidified atmosphere with 5% (v/v) CO2. After this time the growth medium was removed and replaced with 40 μL assay medium comprising: Hanks balanced salts solution (HBSS; Thermo Fisher Catalog #SH30268.01)+5% (v/v) FBS. Compound stock solutions in DMSO were diluted in assay medium to 2.5× final compound concentration maintaining a constant DMSO concentration of 0.25% (v/v). 40 μL of compound in assay medium was dispensed into individual wells of the Cytostar-T plates and the plates were incubated for 30 minutes under ambient laboratory conditions. Following this incubation, 20 μL of 500 nM[^3H] adenosine (American Radiolabeled Chemicals Inc. Catalog #ART0287) in assay medium was added and incubated for a further 60 minutes under ambient laboratory conditions. The amount of radiolabel accumulation was then determined using a Perkin Elmer Topcount NXT microplate reader. In brief, HeLa cells adhere to the bottom of the Cytostar-T plate, uptake of [^3H]adenosine into these cells brings the radiolabel into sufficient proximity to excite the scintillant in the base of the plates. These events are captured by single PMT, time-resolved coincidence counting. IC50 values were determined by 4 parameter robust fit of counts per second values vs. (Log10) compound concentrations.

Chain of BTK enzyme (recombinant full-length BTK, hBTK) (Q06187 whole entry): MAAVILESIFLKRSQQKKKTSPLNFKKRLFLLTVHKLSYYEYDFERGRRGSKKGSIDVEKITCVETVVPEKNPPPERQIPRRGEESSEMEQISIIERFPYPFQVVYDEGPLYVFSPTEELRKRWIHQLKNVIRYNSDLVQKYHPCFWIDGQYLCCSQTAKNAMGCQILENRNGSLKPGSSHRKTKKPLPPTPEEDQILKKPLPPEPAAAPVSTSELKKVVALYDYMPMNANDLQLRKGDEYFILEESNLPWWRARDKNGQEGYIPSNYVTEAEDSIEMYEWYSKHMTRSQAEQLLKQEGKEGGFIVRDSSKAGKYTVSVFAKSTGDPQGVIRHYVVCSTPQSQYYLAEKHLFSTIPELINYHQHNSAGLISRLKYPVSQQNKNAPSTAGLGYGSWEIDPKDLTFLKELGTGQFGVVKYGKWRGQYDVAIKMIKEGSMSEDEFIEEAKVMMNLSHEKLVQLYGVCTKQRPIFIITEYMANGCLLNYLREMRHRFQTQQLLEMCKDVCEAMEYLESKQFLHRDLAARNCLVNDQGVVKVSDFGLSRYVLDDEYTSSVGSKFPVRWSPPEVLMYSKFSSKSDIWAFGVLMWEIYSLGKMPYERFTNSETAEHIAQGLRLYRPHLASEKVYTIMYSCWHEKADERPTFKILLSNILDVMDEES

SMILES	IC50 [1] [nM]	IC50 (HeLa cells; Homo sapiens, HeLa) [nM]	IC50 (HeLa cells) [nM]
CN1CC[C@H](c2nc(-c3ccc(C(=O)Nc4cc(C(F)(F)F)ccn4)cc3)c3c(N)nccn23)C[C@@H]1C(=O)O [Example 83, (2R.4S)-4-[8-amino-1-(4-{[4-(trifluoromethyl)pyridin-2-yl]carbamoyl}phenyl)imidazo[1,5-a]pyrazin-3-yl]-1-methylpiperidine-2-carboxylic acid]	10.2	1140	
Nc1nccn2c(C34CCC(C(=O)O)(CC3)CC4)nc(-c3ccc(C(=O)Nc4cc(C(F)(F)F)ccn4)cc3)c12 [Example 168, 4-[8-amino-1-(4-{[4-(trifluoromethyl)pyridin-2-yl]carbamoyl}phenyl)imidazo[1,5-a]pyrazin-3-yl]bicyclo[2.2.2] octane-1-carboxylic acid]	0.13	308	
CCOc1cc(C(=O)Nc2cc(C(F)(F)F)ccn2)ccc1-c1nc([C@]2(C)CC[C@](C)(C(=O)O)C2)n2ccnc(N)c12 [Example 87, (1S,3R)-3-[8-amino-1-(2-ethoxy-4-{[4-(trifluoromethyl)pyridin-2-yl]carbamoyl}phenyl)imidazo[1,5-a]pyrazin-3-yl]-1,3-dimethylcyclopentane carboxylic acid]	13.9	9790	
CC(C)(C(=O)O)N1CCC[C@@H](c2nc(-c3ccc(C(=O)Nc4cc(C(F)(F)F)ccn4)cc3F)c3c(N)nccn23)C1 [Example 186, 2-{(3R)-3-[8-amino-1-(2-fluoro-4-{[4-(trifluoromethyl)pyridin-2-yl]carbamoyl}phenyl)imidazo [1,5-a]pyrazin-3-yl]piperidin-1-yl}-2-methylpropanoic acid]	9.4	1240	
CCOc1cc(C(=O)Nc2cc(C(F)(F)F)ccn2)ccc1-c1nc([C@H]2CC[C@](C(=O)O)(C(C)C)C2)n2c(Cl)cnc(N)c12 [Example 110, (1R,3S)-3-[8-amino-5-chloro-1-(2-ethoxy-4-{[4-(trifluoromethyl)pyridin-2-yl]carbamoyl}phenyl)imidazo[1,5-a]pyrazin-3-yl]-1-(1-methylethyl) cyclopentane-carboxylic acid]	2.1	4750	
C[C@@]1(C(=O)O)CCC[C@@](C)(c2nc(-c3ccc(C(=O)Nc4cc(C(F)(F)F)ccn4)cc3)c3c(N)nccn23)C1 [Example 138, (1R,3R)-3-[8-amino-1-(4-{[4-(trifluoromethyl)pyridin-2-yl]carbamoyl}phenyl)imidazo[1,5-a]pyrazin-3-yl]-1,3-dimethylcyclohexane-carboxylic acid]	0.34		6070
CCOc1cc(C(=O)Nc2cc(C(F)(F)F)ccn2)ccc1-c1nc([C@H]2CC[C@@H](C(C)C)[C@@H](C(=O)O)C2)n2ccnc(N)c12 [Example 101, (1S,2S,5S)-5-[8-amino-1-(2-ethoxy-4-{[4-(trifluoromethyl)pyridin-2-yl]carbamoyl}phenyl)imidazo[1,5-a]pyrazin-3-yl]-2-(1-methylethyl) cyclohexane-carboxylic acid]	2	10000	
CCOc1cc(C(=O)Nc2cc(C(F)(F)F)ccn2)cc(F)c1-c1nc([C@]2(C)CC[C@@](C)(C(=O)O)CC2)n2ccnc(N)c12 [Example 119, trans-4-[8-amino-1-(2-ethoxy-6-fluoro-4-{[4-(trifluoromethyl)pyridin-2-yl]carbamoyl}phenyl)imidazo[1,5-a]pyrazin-3-yl]-1,4-dimethylcyclohexane-carboxylic acid]	0.96	10000	
C[C@]1(C(=O)O)CC[C@@H](N2CCO[C@@H](c3nc(-c4ccc(C(=O)Nc5cc(C6CC6)ccn5)cc4F)c4c(N)nccn34)C2)CC1 [Example 198, cis-4-[(2R)-2-(8-amino-1-{4-[(4-cyclopropylpyridin-2-yl)carbamoyl]-2-fluorophenyl}imidazo[1,5-a]pyrazin-3-yl)morpholin-4-yl]-1-methylcyclohexanecarboxylic acid]	10.5	2030	
Nc1nccn2c([C@@H]3C[C@@H]3C(=O)O)nc(-c3ccc(C(=O)Nc4cc(C(F)(F)F)ccn4)cc3)c12 [Example 167, (1S,2R)-2-[8-amino-1-(4-{[4-(trifluoromethyl)pyridin-2-yl]carbamoyl}phenyl)imidazo[1,5-a]pyrazin-3-yl]cyclopropane-carboxylic acid]	760	10000	
CCOc1cc(C(=O)Nc2cc(C(F)(F)F)ccn2)cc(F)c1-c1nc([C@@]2(C)CC[C@](C)(C(=O)O)C2)n2ccnc(N)c12 [Example 126, (1S,3S)-3-[8-amino-1-(2-ethoxy-6-fluoro-4-{[4-(trifluoromethyl)pyridin-2-yl]carbamoyl}phenyl)imidazo[1,5-a]pyrazin-3-yl]-1,3-dimethylcyclopentane carboxylic acid]	0.47	10000	
CCOc1cc(C(=O)Nc2cc(C(F)(F)F)ccn2)ccc1-c1nc(C23CCC(C(=O)O)(CC2(F)F)C(F)(F)C3)n2ccnc(N)c12 (stereo not shown) [Example 66, 4-[8-amino-1-(2-ethoxy-4-{[4-(trifluoromethyl)pyridin-2-yl]carbamoyl}phenyl)imidazo[1,5-a]pyrazin-3-yl]-2,2,5,5-tetrafluorobicyclo [2.2.2]octane-1-carboxylic acid]	0.47	10000	
CCOc1cc(C(=O)Nc2cc(C(F)(F)F)ccn2)ccc1-c1nc(C2(C)CCC(C)(C(=O)O)CC2)n2ccnc(N)c12 (stereo not shown) [Example 78, 4-[8-amino-1-(2-ethoxy-4-{[4-(trifluoromethyl)pyridin-2-yl]carbamoyl}phenyl)imidazo[1,5-a]pyrazin-3-yl]-1,4-dimethylcyclohexane-carboxylic acid]	1.3	5140	
Nc1nccn2c(C34C5C6C3C3C4C5C63C(=O)O)nc(-c3ccc(C(=O)Nc4cc(C5CC5)ccn4)cc3F)c12 (stereo not shown) [Example 74, 4-(8-amino-1-(4-((4-cyclopropylpyridin-2-yl)carbamoyl)-2-fluorophenyl)imidazo [1,5-a]pyrazin-3-yl)cubane-1-carboxylic acid]	0.54	113	
Nc1nccn2c(-c3ccc(C(=O)O)c(F)c3)nc(-c3ccc(C(=O)Nc4cc(C(F)(F)F)ccn4)cc3)c12 [Example 25, 4-[8-amino-1-(4-{[4-(trifluoromethyl)pyridin-2-yl]carbamoyl}phenyl)imidazo[1,5-a]pyrazin-3-yl]-2-fluorobenzoic acid]	1.7	6110	
C[C@H]1CO[C@@H](c2nc(-c3ccc(C(=O)Nc4cc(C(F)F)ccn4)cc3F)c3c(N)nccn23)CN1[C@H]1CC[C@](C)(C(=O)O)CC1 [Example 208, trans-4-{(2R,5S)-2-[8-amino-1-(4-{[4-(difluoromethyl)pyridin-2-yl]carbamoyl}-2-fluorophenyl)imidazo[1,5-a]pyrazin-3-yl]-5-methylmorpholin-4-yl}-1-methylcyclohexanecarboxylic acid]	923	10000	
CCOc1cc(C(=O)Nc2cc(C(F)(F)F)ccn2)ccc1-c1nc(C2CCC(C)(C(=O)O)CC2)n2c(Cl)cnc(N)c12 (stereo not shown) [Example 165, 4-[8-amino-5-chloro-1-(2-ethoxy-4-{[4-(trifluoromethyl)pyridin-2-yl]carbamoyl}phenyl)imidazo[1,5-a]pyrazin-3-yl]-1-methylcyclohexane-carboxylic acid]	4.4	10000	
